Data as given in patent publication US11214803B2, “Modulators of YAP1 expression” (Ionis Pharmaceuticals, Inc., priority 2019, dated 2022).
Strand notation (5' to 3'): a small letter for the sugar, then the base; units joined by * are phosphorothioate-linked, units joined directly phosphodiester-linked; [ ] holds rarer units or linkages, { } end groups; capitals alone tell only the bases. k = constrained ethyl (cEt); [5mC] = 5-methylcytosine; d = 2'-deoxy (DNA)

Test system: Yap1 mRNA
Test: Dose-dependent inhibition of human Yap1 in A-431 cells (Example 8, 10,000 cells per well, RTS4814)
Assay type: cell-based
Conditions: free uptake, approximately 48 hours, RTS4814; for Yap1 mRNA, % UTC: A-431 cells, 10,000 cells per well; for IC50: A-431 cells, linear regression on log/linear plot
Experimental: Modified oligonucleotides described in the studies above were tested at various doses in A-431 cells. Cultured A-431 cells at a density of 10,000 cells per well were treated using free uptake with modified oligonucleotides diluted to concentrations described in the tables below. After approximately 48 hours, Yap1 mRNA levels were measured as previously described using the Human Yap1 primer-probe set RTS4814. Yap1 mRNA levels were normalized to total RNA content, as measured by RIBOGREEN®. Results are presented in the tables below as percent control of the amount of Yap1 mRNA relative to untreated control cells (% UTC). IC50s were calculated using a linear regression on a log/linear plot of the data in excel.

Substance	Yap1 mRNA, % UTC (31.3 nM) [% UTC]	Yap1 mRNA, % UTC (125.0 nM) [% UTC]	Yap1 mRNA, % UTC (500.0 nM) [% UTC]	Yap1 mRNA, % UTC (2000.00 nM) [% UTC]	IC50 [nM]
1074594 (DNA kT*kA*kG*dG*dA*dG*d[5mC]*dA*dA*dG*dT*d[5mC]*dT*kT*kG*kT) [compound 1074594]	53	23	10	5	< 20
1074566 (DNA CACTGAATTCCAATCG; 3-10-3 cEt gapmer, chemistry not fully specified) [compound 1074566]	41	12	5	3	< 20
1076067 (kG*k[5mC]*kA*dT*dA*dT*dA*dA*dG*dA*dT*dG*dT*kT*kT*kG; antisense) [compound 1076067]	45	13	5	4	< 20
1076516 (k[5mC]*kA*kT*dA*dA*dA*d[5mC]*dA*dT*dG*dA*dG*dT*kG*kG*kT; antisense) [compound 1076516]	64	39	18	13	100
1075137 (kG*kA*kT*dT*dA*dA*dA*dT*dA*d[5mC]*dT*dG*dA*k[5mC]*k[5mC]*kA; antisense) [compound 1075137]	70	22	8	4	100
1076486 (kG*kA*kA*dA*d[5mC]*dG*dA*dA*dA*d[5mC]*dG*dG*dG*kA*kA*kA; antisense) [compound 1076486]	84	45	16	6	100
1076070 (kA*kT*kT*dA*dG*dT*dA*dA*dT*dG*d[5mC]*dA*d[5mC]*kA*kG*kG; antisense) [compound 1076070]	55	17	8	6	< 20
1076456 (k[5mC]*kT*kT*dT*dA*dA*dA*dG*dT*dG*dT*dA*dT*kG*kT*k[5mC]) [compound 1076456]	43	14	5	3	< 20
1075816 (kT*kA*kG*dT*dA*dT*dA*dA*dA*dG*d[5mC]*dA*dG*kG*kG*k[5mC]; antisense) [compound 1075816]	66	29	12	8	100
1076523 (kA*kT*kT*dT*dA*dT*dA*dT*d[5mC]*dA*dG*dG*dT*k[5mC]*kA*kA; antisense) [compound 1076523]	67	38	18	7	100
1076256 (kT*kT*kA*dT*dT*dT*dA*dG*dG*d[5mC]*d[5mC]*d[5mC]*d[5mC]*kA*kT*kA; antisense) [compound 1076256]	68	33	11	6	100
1076388 (antisense kG*kA*kA*dA*dT*dA*dT*dT*d[5mC]*dG*dA*dG*dA*kA*kG*kA) [compound 1076388]	87	40	13	6	100
1074407 (kT*kA*kA*dA*dG*dT*dA*dT*d[5mC]*dT*dT*dG*d[5mC]*kT*kG*kG; antisense) [compound 1074407]	55	27	13	8	< 20
1075242 (k[5mC]*kA*kG*dG*dG*dA*dT*dA*dA*dT*dT*dA*d[5mC]*kT*kA*kA; antisense) [compound 1075242]	71	39	18	12	100
1075115 (kG*kT*kA*dT*dA*dG*d[5mC]*d[5mC]*dT*dT*dA*dT*dT*k[5mC]*kT*kT; antisense) [compound 1075115]	57	41	17	9	100
1074411 (kT*kG*kT*dG*dA*dA*dA*dG*dA*dG*dG*dT*d[5mC]*kA*kG*k[5mC]; antisense) [compound 1074411]	47	20	8	6	< 20
1076327 (kG*kA*kT*dA*dA*dG*d[5mC]*dA*dA*dG*dG*dT*dT*k[5mC]*kT*k[5mC]; antisense) [compound 1076327]	73	38	17	9	100
1074536 (kA*kG*kT*dA*dA*dT*dA*dG*d[5mC]*dT*d[5mC]*dT*dT*kT*k[5mC]*kT; antisense) [compound 1074536]	64	24	9	6	40
1074723 (antisense kG*kG*kT*dA*dA*dA*dG*dG*dA*dA*dG*dA*dT*k[5mC]*kT*k[5mC]) [compound 1074723]	56	24	11	8	< 20
1075112 (kA*kT*kA*dT*dA*dG*dG*dA*dA*dT*dA*dT*dG*kG*kG*kT; antisense) [compound 1075112]	87	36	13	7	100
1075401 (antisense k[5mC]*kG*kA*dT*dT*dA*dA*dA*dA*d[5mC]*dA*d[5mC]*dT*kG*kG*kT) [compound 1075401]	62	26	11	7	40
1075781 (k[5mC]*kA*kT*dA*dT*dA*dT*dT*dG*dT*dG*dA*d[5mC]*kT*kT*k[5mC]; antisense) [compound 1075781]	52	15	4	3	< 20
1075842 (kG*kT*kA*dT*dT*dT*dA*dG*dG*dT*dA*d[5mC]*dT*k[5mC]*kA*kG; antisense) [compound 1075842]	27	7	3	3	< 20
1074762 (kG*k[5mC]*kT*dA*d[5mC]*d[5mC]*d[5mC]*dA*dA*dT*dA*d[5mC]*dA*kA*k[5mC]*k[5mC]; antisense) [compound 1074762]	74	32	14	8	100
1076552 (kA*kT*kG*dT*dA*dT*dA*dA*dA*dT*dA*d[5mC]*d[5mC]*kA*kG*kG; antisense) [compound 1076552]	73	40	17	12	100
1075233 (kG*kT*kA*dA*dT*dT*dT*dA*dT*d[5mC]*dA*dG*d[5mC]*k[5mC]*kA*kT; antisense) [compound 1075233]	45	12	5	3	< 20
1074315 (antisense kG*kA*kT*dT*dG*dA*dT*dA*dT*dT*d[5mC]*d[5mC]*dG*k[5mC]*kA*kT) [compound 1074315]	57	26	9	5	30
1075808 (kG*k[5mC]*kA*dA*dT*dA*dG*dA*dG*dT*dA*dA*d[5mC]*k[5mC]*kA*kG; antisense) [compound 1075808]	38	9	4	4	< 20
1075498 (k[5mC]*kA*kT*dT*dA*dT*dA*dT*dA*dA*dT*dG*d[5mC]*kA*kG*kG; antisense) [compound 1075498]	82	40	21	16	100
1076326 (kG*k[5mC]*kT*dA*dA*dT*dA*dA*dT*dG*dG*dA*dA*kG*kA*kG; antisense) [compound 1076326]	53	20	6	3	< 20
